Reference: patent US6683077B2, “2-Amino-benzoxazinones for the treatment of viral infections” (G.D. Searle & Co., priority 1996, dated 2004)

What was measured:
[1] = molecular target: T1, Human leukocyte elastase (HLE) (Homo sapiens, UniProt P08246); assay: Human leukocyte elastase assay; assay type: biochemical
T1 construct: gift of R. Senior, Washington University
T1 sequence (P08246 30-267): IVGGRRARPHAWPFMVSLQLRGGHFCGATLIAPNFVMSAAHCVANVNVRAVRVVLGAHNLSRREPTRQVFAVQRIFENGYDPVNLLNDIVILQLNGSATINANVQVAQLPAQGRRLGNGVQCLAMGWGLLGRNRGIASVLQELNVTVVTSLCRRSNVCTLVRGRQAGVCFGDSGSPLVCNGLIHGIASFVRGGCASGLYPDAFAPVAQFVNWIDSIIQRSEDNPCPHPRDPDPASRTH
Protocol: Human leukocyte elastase (HLE) (gift of R. Senior, Washington University) was dissolved in saline at 1 mg/ml and further diluted 1/20 in assay buffer (0.2 M Tris, pH 8.0) before use. 10 μl of test compound in DMSO (or DMSO alone), 100 μl of assay buffer and 50 μl of enzyme were added to 96 well plates, mixed and pre-incubated for 30 minutes at ambient temperature. Reaction was initiated by addition of 40 μl of 2.5 mM methoxysuccinyl-Ala-Ala-Pro-Val-p-nitroanilide (Sigma; 25 mM in DMSO diluted 1/10 in assay buffer before use). The increase in absorbance at 405 nm was monitored for 10 minutes with a Biotek EL340 plate reader.

[2] = molecular target: HCMV protease (assemblin) (Human cytomegalovirus, UniProt P16753); assay: Enzymatic assay for HCMV protease (assemblin) inhibitors; assay type: biochemical
Sequence of HCMV protease (assemblin) (P16753 1-256): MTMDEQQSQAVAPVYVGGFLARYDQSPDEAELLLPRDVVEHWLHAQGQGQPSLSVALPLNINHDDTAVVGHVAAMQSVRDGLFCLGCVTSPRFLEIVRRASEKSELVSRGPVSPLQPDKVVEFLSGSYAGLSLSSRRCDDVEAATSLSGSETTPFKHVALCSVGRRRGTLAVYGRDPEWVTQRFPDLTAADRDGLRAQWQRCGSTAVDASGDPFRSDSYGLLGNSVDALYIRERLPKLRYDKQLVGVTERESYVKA

[3] = test system: HCMV engineered virus RC256; assay: microbe, parasite or virus in culture; assay type: cell-based, human cytomegalovirus; details: Human betaherpesvirus 5, Fibroblast, read-out: Antiviral Activity RC256, first value (EC50)
[4] = @ 1 (concentration unit not given)
[5] = @ 10 (concentration unit not given)
[6] = @ 100 (concentration unit not given)

SMILES	EC50 [3]	HLE, % @ concentration [1, 5]	other results
CCN(Cc1ccccc1)C(=O)[C@H](Cc1ccc(OC)cc1)Nc1nc2ccc(CNC(=O)Oc3ccccc3)c(C)c2c(=O)o1 [Example 9q, Phenyl[[2-[[2-[ethyl(phenylmethyl)amino-1S-,(4-methoxyphenyl)methyl]-2-oxoethyl]amino]-5-methyl-4-oxo-3,1-benzoxazin-6-yl]methyl]carbamate]	18 µM	–	HLE, % @ concentration ([1]; @ 5 (concentration unit not given)): 48% @ 5; IC50 [2]: 1 µM
COc1ccc(C[C@H](Nc2nc3ccc(CNC(=O)OC(C)(C)C)c(C)c3c(=O)o2)C(=O)N(C)c2ccc(Cl)cc2)cc1 [Example 7r, 1,1-Dimethylethyl[[2-[[2-[(4-chlorophenyl)methylamino]-1S-[(4-methoxyphenyl)methyl]-2-oxoethyl]amino]-5-methyl-4-oxo-4H-3,1-benzoxazin-6-yl]methyl]carbamate]	7 µM	–	HLE, % @ concentration [1, 4]: 44% @ 1; Assemblin Protease, % @ concentration [2, 4]: 52% @ 1
Cc1c(CNC(=O)Oc2ccccc2)ccc2nc(N[C@@H](Cc3ccccc3)C(=O)N(C)Cc3ccccc3)oc(=O)c12 [Example 9ee, Phenyl[[5-methyl-2-[[2-[methyl(phenylmethyl)amino]-2-oxo-1S-(phenylmethyl)ethyl]amino]-4-oxo-4H-3,1-benzoxazin-6-yl]methyl]carbamate]	15 µM	47% @ 10	IC50 [2]: 0.6 µM
Cc1c(CNS(=O)(=O)c2ccccc2)ccc2nc(N[C@@H](Cc3ccccc3)C(=O)N(C)Cc3ccccc3)oc(=O)c12 [Example 13e, N-Methyl-αS-[[5-methyl-4-oxo-6-[[(phenylsulfonyl)amino]methyl]-4H-3,1-benzoxazin-2-yl]amino]-N-(phenylmethyl)benzenepropanamide]	14 µM	–	Assemblin Protease, % @ concentration [2, 6]: 11% @ 100
COc1ccc(C[C@H](Nc2nc3ccc(CNC(=O)Oc4ccccc4)c(C)c3c(=O)o2)C(=O)N(C)Cc2ccccc2)cc1 [Example 9j, Phenyl[[2-[[1S-[(4-methoxyphenyl)methyl]-2-[methyl(phenylmethyl)amino]-2-oxcethyl]amino]-5-methyl-4-oxo-4H-3,1-benzoxazin-6-yl]methyl]carbamate]	20 µM	–	IC50 [2]: 0.4 µM
COc1ccc(C[C@H](Nc2nc3ccc(NC(=O)OCC(C)C)c(C)c3c(=O)o2)C(=O)N(C)Cc2ccccc2)cc1 [Example 11s, 2-Methylpropyl[2-[[1S-[(4-methoxyphenyl)methyl]-2-[methyl(phenylmethyl)amino]-2-oxoethyl]amino]-5-methyl-4H-3,1-benzoxazin-6-yl]carbamate]	17 µM	–	Assemblin Protease, % @ concentration [2, 5]: 58% @ 10
CCOC(=O)NCc1cc(Br)c2nc(N[C@@H](Cc3ccccc3)C(=O)N(C)Cc3ccccc3)oc(=O)c2c1C [Example 15b, Ethyl[[8-bromo-5-methyl-2-[[2-[methyl(phenylmethyl)amino]-2-oxo-1S-(phenylmethyl)ethyl]amino]-4-oxo-4H-3,1-benzoxazin-6-yl]methyl]carbamate]	16 µM	–	Assemblin Protease, % @ concentration [2, 5]: 39% @ 10
Cc1c(CNC(=O)OCc2ccccc2)ccc2nc(N[C@@H](Cc3ccccc3)C(=O)N(C)Cc3ccccc3)oc(=O)c12 [Example 9r, Phenylmethyl[[5-methyl-2-[[2-[methyl(phenylmethyl)amino]-2-oxo-1S-(phenylmethyl)ethyl]amino]-4-oxo-4H-3,1-benzoxazin-6-yl]methyl]carbamate]	14 µM	–	HLE, % @ concentration [1, 4]: 47% @ 1
Cc1c(CNC(=O)OC(C)(C)C)ccc2nc(N[C@@H](Cc3ccc(Cl)cc3)C(=O)N(C)Cc3ccccc3)oc(=O)c12 [Example 7p, 1,1-Dimethylethyl[[2-[[1S-[(4-chlorophenyl)methyl]-2-[methyl(phenylmethyl)amino]-2-oxoethyl]amino]-5-methyl-4-oxo-4H-3,1-benzoxazin-6-yl]methyl]carbamate]	20 µM	–	HLE, % @ concentration [1, 4]: 42% @ 1
COc1ccc(C[C@H](Nc2nc3ccc(NC(=O)c4ccccn4)c(C)c3c(=O)o2)C(=O)N(C)Cc2ccccc2)cc1 [Example 11p, N-[2-[[1S-[(4-Methoxyphenyl)methyl]-2-[-methyl(phenylmethyl)amino]-2-oxoethyl]amino]-5-methyl-4-oxo-4H-3,1-benzoxazin-6-yl]pyridine-2-carboxamide]	8.5 µM	40% @ 10	–
CCOC(=O)NCc1ccc2nc(N[C@@H](Cc3ccccc3)C(=O)N(C)Cc3ccccc3)oc(=O)c2c1C [Example 9k, Ethyl[[5-methyl-2-[[2-[methyl(phenylmethyl)amino]-2-oxo-1S-(phenylmethyl)ethyl]amino]-4-oxo-4H-3,1-benzoxazin-6-yl]methyl]carbamate]	11 µM	29% @ 10	–
COc1ccc(C[C@H](Nc2nc3ccc(CNC(=O)CC(C)(C)C)c(C)c3c(=O)o2)C(=O)N(C)Cc2ccccc2)cc1 [Example 9m, αS-[[6-[[(3,3-Dimethyl-1-oxobutyl)amino]methyl]-5-methyl-4-oxo-4H-3,1-benzoxazin-2-yl]amino]-4-methoxy-N-methyl-N-(phenylmethyl)benzenepropanamide]	14 µM	–	HLE, % @ concentration [1, 4]: 73% @ 1
CCN(C(=O)[C@H](Cc1ccc(OC)cc1)Nc1nc2ccc(N(C)C)c(C)c2c(=O)o1)c1ccccc1 [Example 16b, αS-[[6-(Dimethylamino)-5-methyl-4-oxo-4H-3,1-benzoxazin-2-yl]amino]-N-ethyl-4-methoxy-N-phenylbenzenepropanamide]	20 µM	–	HLE, % @ concentration [1, 4]: 49% @ 1
COc1ccc(C[C@H](Nc2nc3ccc(NS(=O)(=O)c4ccccc4)c(C)c3c(=O)o2)C(=O)N(C)Cc2ccccc2)cc1 [Example 13c, 4-Methoxy-N-methyl-αS-[[5-methyl-4-oxo-6-[(phenylsulfonyl)amino]-4H-3,1-benzoxazin-2-yl]amino]-N-(phenylmethyl)benzenepropanamide]	10 µM	39% @ 10	–
Cc1c(N(C)C)ccc2nc(N[C@@H](Cc3ccccc3)C(=O)N(C)Cc3ccccc3)oc(=O)c12 [Example 16, αS-[[6-(Dimethylamino)-5-methyl-4-oxo-4H-3,1-benzoxazin-2-yl]amino]-N-methyl-N-(phenylmethyl) benzenepropanamide]	17 µM	59% @ 10	–
Cc1c(NCc2ccccc2)ccc2nc(N[C@@H](Cc3ccccc3)C(=O)N(C)Cc3ccccc3)oc(=O)c12 [Example 17d, N-Methyl-αS-[[5-methyl-4-oxo-6-[(phenylmethyl)amino]-3,1-benzoxazin-2-yl]amino]-N-(phenylmethyl)benzenepropanamide]	15 µM	48% @ 10	–
COC(=O)C1(Nc2nc3ccc(NC(=O)OC(C)(C)C)c(C)c3c(=O)o2)CC1 [Example 6x, N-[6-[[(1,1-Dimethylethoxy)carbonyl]amino]-5-methyl-4-oxo-4H-3,1-benzoxazin-2-yl]-1-cyclopropanecarboxylic acid, methyl ester]	> 100 µM	25% @ 10	–
Cc1c(NC(=O)c2ccco2)ccc2nc(N[C@@H](C)c3ccccc3)oc(=O)c12 [Example 11k, 6-[[(2-Furanyl)carbonyl]amino]-5-methyl-2-[[(1S)-phenylethyl]amino]-4H-3,1-benzoxazin-4-one]	65 µM	–	HLE, % @ concentration [1, 6]: 63% @ 100
COc1ccc(C[C@H](Nc2nc3ccc(NC(=O)OCc4ccccc4)c(C)c3c(=O)o2)C(=O)N(C)Cc2ccccc2)cc1 [Example 11t, Phenylmethyl[2-[[1S-[(4-methoxyphenyl)methyl]-2-[methyl(phenylmethyl)amino]-2-oxoethyl]amino]-5-methyl-4H-3,1-benzoxazin-6-yl]carbamate]	35 µM	–	Assemblin Protease, % @ concentration [2, 5]: 38% @ 10
Cc1c(CNC(=O)OC(C)(C)C)ccc2nc(N[C@@H](Cc3ccccc3)C(=O)N(C)CCc3ccccc3)oc(=O)c12 [Example 7v, 1,1-Dimethylethyl[[5-methyl-2-[[2-[methyl(2-phenylethyl)amino]-2-oxo-1S-(phenylmethyl)ethyl]amino]-4-oxo-4H-3,1-benzoxazin-6-yl]methyl]carbamate]	14 µM	53% @ 10	–
